# Results taken from US12077503B2, “Substituted cyclic amides and their use as herbicides” (FMC CORPORATION, priority 2015, dated 2024).
# What was measured:
# Assay type in all cases: in vivo
# Kochia (Kochia scoparia) [1] = assay: Test A preemergence; conditions: Bassia scoparia, pre-emergence, 240 h, 0 to 100 scale where 0 is no effect and 100 is complete control, read-out: Kochia plant response rating
# Summary of the method: (§1)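 Greenhouse, ~10 d after spray; visual injury vs untreated controls, 0 = no effect, 100 = complete control. Preemergence: directed soil spray over planted seeds. Postemergence: plants 2–10 cm, 1–2 leaf stage. Loam/sand blend. Compound in non-phytotoxic solvent with surfactant.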
# [2] = tested on: barnyardgrass (Echinochloa crus-galli); assay: Test A preemergence; conditions: Echinochloa crus-galli, pre-emergence, 240 h, 0 to 100 scale where 0 is no effect and 100 is complete control, read-out: Barnyardgrass plant response rating
# Summary of the method: as §1
# [3] = tested on: giant foxtail (Setaria faberii); assay: Test A preemergence; conditions: Setaria faberi, pre-emergence, 240 h, 0 to 100 scale where 0 is no effect and 100 is complete control, read-out: Foxtail, Giant plant response rating
# Summary of the method: as §1
# [4] = tested on: pigweed (Amaranthus retroflexus); assay: Test A preemergence; conditions: Amaranthus retroflexus, pre-emergence, 240 h, 0 to 100 scale where 0 is no effect and 100 is complete control, read-out: Pigweed plant response rating
# [5] = tested on: ragweed (common ragweed, Ambrosia elatior); assay: Test A preemergence; conditions: Ambrosia artemisiifolia, pre-emergence, 240 h, 0 to 100 scale where 0 is no effect and 100 is complete control, read-out: Ragweed plant response rating
# Summary of the method: as §1
# [6] = tested on: ryegrass, Italian (Italian ryegrass, Lolium multiflorum); assay: Test A preemergence; conditions: Lolium multiflorum, pre-emergence, 240 h, 0 to 100 scale where 0 is no effect and 100 is complete control, read-out: Ryegrass, Italian plant response rating
# Summary of the method: as §1
# [7] = tested on: Galium (catchweed bedstraw, Galium aparine); assay: Test A postemergence; conditions: Galium, post-emergence, 240 h, read-out: Galium plant response rating (0 to 100 scale)
# Summary of the method: as §1
# Kochia (Kochia scoparia) [8] = assay: Test A postemergence; conditions: Bassia scoparia, post-emergence, 240 h, read-out: Kochia plant response rating (0 to 100 scale)
# Summary of the method: as §1
# [9] = tested on: barnyardgrass (Echinochloa crus-galli); assay: Test A postemergence; conditions: Echinochloa crus-galli, post-emergence, 240 h, read-out: Barnyardgrass plant response rating (0 to 100 scale)
# Summary of the method: as §1
# [10] = tested on: blackgrass (Alopecurus myosuroides); assay: Test A postemergence; conditions: Alopecurus myosuroides, post-emergence, 240 h, read-out: Blackgrass plant response rating (0 to 100 scale)
# Summary of the method: as §1
# corn (Zea mays) = assay: Test A postemergence; conditions: Zea mays, post-emergence, 240 h, read-out: Corn plant response rating (0 to 100 scale)
# Summary of the method: as §1
# [11] = tested on: giant foxtail (Setaria faberii); assay: Test A postemergence; conditions: Setaria faberi, post-emergence, 240 h, read-out: Foxtail, Giant plant response rating (0 to 100 scale)
# Summary of the method: as §1
# [12] = tested on: pigweed (Amaranthus retroflexus); assay: Test A postemergence; conditions: Amaranthus retroflexus, post-emergence, 240 h, read-out: Pigweed plant response rating (0 to 100 scale)
# Summary of the method: as §1
# [13] = tested on: ragweed (common ragweed, Ambrosia elatior); assay: Test A postemergence; conditions: Ambrosia artemisiifolia, post-emergence, 240 h, read-out: Ragweed plant response rating (0 to 100 scale)
# Summary of the method: as §1
# [14] = tested on: ryegrass, Italian (Italian ryegrass, Lolium multiflorum); assay: Test A postemergence; conditions: Lolium multiflorum, post-emergence, 240 h, read-out: Ryegrass, Italian plant response rating (0 to 100 scale)
# Summary of the method: as §1
# [15] = tested on: wheat (Triticum aestivum); assay: Test A postemergence; conditions: Triticum aestivum, post-emergence, 240 h, read-out: Wheat plant response rating (0 to 100 scale)
# Summary of the method: as §1
# [16] = tested on: barnyardgrass (Echinochloa crus-galli); assay: Test B flooded paddy test; conditions: Echinochloa crus-galli, 250 g ai/ha, Flood; 0 to 100 scale where 0 is no effect and 100 is complete control; read-out: Barnyardgrass plant response rating
# Summary of the method: (§2)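 Flooding to 3 cm over soil accompanied treatment, which consisted of adding compound to the standing water around 2-leaf plants; depth was then maintained. Visual assessment versus controls followed at 13 to 15 d (scale 0–100, 0 meaning no effect).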
# [17] = tested on: ducksalad (Heteranthera limosa); assay: Test B flooded paddy test; conditions: Heteranthera limosa, 250 g ai/ha, Flood; 0 to 100 scale where 0 is no effect and 100 is complete control; read-out: Ducksalad plant response rating
# Summary of the method: as §2
# rice (Oryra sativa) = assay: Test B flooded paddy test; conditions: Oryza sativa, 250 g ai/ha, Flood; 0 to 100 scale where 0 is no effect and 100 is complete control; read-out: Rice plant response rating
# Summary of the method: as §2
# [18] = tested on: sedge, umbrella (small-flower umbrella sedge, Cyperus difformis); assay: Test B flooded paddy test; conditions: Cyperus difformis, 250 g ai/ha, Flood; 0 to 100 scale where 0 is no effect and 100 is complete control; read-out: Sedge, Umbrella plant response rating
# Summary of the method: as §2
# [19] = 125 g ai/ha, preemergence, visual injury rating, approximately 10 d
# [20] = 125 g ai/ha, postemergence, visual injury vs untreated controls after approx. 10 d, 0 = no effect, 100 = complete control
# [21] = Postemergence, 31 g ai/ha, 0 is no effect, 100 is complete control
smiles,measurement,setting,value
N#Cc1ccc([C@H]2CNC(=O)[C@@H]2C(=O)Nc2cccc(F)c2F)cc1F [Compound 1193],pest or weed control at 31 g/ha,"Kochia (Kochia scoparia) [1]; 31 g ai/ha, Preemergence",0%
same,pest or weed control at 125 g/ha,Kochia (Kochia scoparia) [1]; [19],0%
same,pest or weed control at 31 g/ha,"[2]; 31 g ai/ha, Preemergence",40%
same,pest or weed control at 125 g/ha,[2]; [19],90%
same,pest or weed control at 31 g/ha,"[3]; 31 g ai/ha, Preemergence",0%
same,pest or weed control at 125 g/ha,[3]; [19],80%
same,pest or weed control at 31 g/ha,"[4]; 31 g ai/ha, Preemergence",0%
same,pest or weed control at 125 g/ha,[4]; [19],0%
same,pest or weed control at 31 g/ha,"[5]; 31 g ai/ha, Preemergence",0%
same,pest or weed control at 125 g/ha,[5]; [19],0%
same,pest or weed control at 31 g/ha,"[6]; 31 g ai/ha, Preemergence",0%
same,pest or weed control at 125 g/ha,[6]; [19],0%
same,pest or weed control at 125 g/ha,[7]; [20],0%
same,pest or weed control at 31 g/ha,[7]; [21],0%
same,pest or weed control at 125 g/ha,Kochia (Kochia scoparia) [8]; [20],0%
same,pest or weed control at 31 g/ha,Kochia (Kochia scoparia) [8]; [21],0%
same,pest or weed control at 125 g/ha,[9]; [20],70%
same,pest or weed control at 31 g/ha,[9]; [21],0%
same,pest or weed control at 125 g/ha,[10]; [20],0%
same,pest or weed control at 31 g/ha,[10]; [21],0%
same,plant injury at 125 g/ha,corn (Zea mays); [20],0%
same,plant injury at 31 g/ha,corn (Zea mays); [21],0%
same,pest or weed control at 125 g/ha,[11]; [20],30%
same,pest or weed control at 31 g/ha,[11]; [21],0%
same,pest or weed control at 125 g/ha,[12]; [20],0%
same,pest or weed control at 31 g/ha,[12]; [21],0%
same,pest or weed control at 125 g/ha,[13]; [20],0%
same,pest or weed control at 31 g/ha,[13]; [21],0%
same,pest or weed control at 125 g/ha,[14]; [20],0%
same,pest or weed control at 31 g/ha,[14]; [21],0%
same,plant injury at 125 g/ha,[15]; [20],0%
same,plant injury at 31 g/ha,[15]; [21],0%
same,pest or weed control at 250 g/ha,[16],75%
same,pest or weed control at 250 g/ha,[17],90%
same,pest or weed control at 250 g/ha,rice (Oryra sativa),30%
same,pest or weed control at 250 g/ha,[18],0%
